Results: patent US11173137B2, “Compositions and methods to modulate chloride ion channel activity” (The Board of Trustees of the Leland Stanford Junior …, priority 2018, dated 2021)
Several values for one entry are separate records, joined by “and”; a condition that tells them apart may be missing. Equal entries are not always repeated. Where two headings read alike, the source gives them in different places. Blank lines part the entries; values can stand above or below the molecule they belong to.

Legend:
CLC-2 = CLC-2 (Homo sapiens (Human), UniProt P51788); test: IonWorks Barracuda automated patch-clamp electrophysiology, human CLC-2 cell line; type: cell-based; conditions: for times greater potency towards CLC-2 compared to CLC-1: CLC-2 versus CLC-1
Source text: FIG. 8, panels A and B depict graphically the Selectivity between CLC-1 and CLC-2. […]

5-HT1B = 5-HT1B (Homo sapiens (Human), UniProt P28222); test: PDSP primary binding assay; conditions: primary binding assay at 10 μM
Method: (§1) Two exemplary compounds, FA44 and FA26, were screened against a panel of CNS receptors, transporters, and ion channels to examine specificity for CLC-2 in the brain. A comprehensive primary binding assay screen was performed through the NIH Psychoactive Drug Screening Program (PDSP) at UNC-Chapel Hill. Secondary or functional assays were performed for compounds showing >50% activity in the primary assay.

5-HT1D = 5-HT1D (Homo sapiens (Human), UniProt P28221); test: PDSP primary binding assay; conditions: primary binding assay at 10 μM
Method: as §1

5-HT1E = 5-HT1E (Homo sapiens (Human), UniProt P28566); test: PDSP primary binding assay; conditions: primary binding assay at 10 μM
Method: as §1

5-HT2C = 5-HT2C (Homo sapiens (Human), UniProt P28335); test: PDSP primary binding assay; conditions: primary binding assay at 10 μM
Method: as §1

5-HT3 = 5-HT3 (Homo sapiens (Human), UniProt P46098); test: PDSP primary binding assay; conditions: primary binding assay at 10 μM
Method: as §1

5-HT5A = 5-HT5A (Homo sapiens (Human), UniProt P47898); test: PDSP primary binding assay; conditions: primary binding assay at 10 μM
Method: as §1

5-HT6 = 5-HT6 (Homo sapiens (Human), UniProt P50406); test: PDSP primary binding assay; conditions: primary binding assay at 10 μM
Method: as §1

Alpha2C = Alpha2C (Homo sapiens (Human), UniProt P18825); test: PDSP primary binding assay; conditions: primary binding assay at 10 μM
Method: as §1

Beta1 = Beta1 (Homo sapiens (Human), UniProt P08588); test: PDSP primary binding assay; conditions: primary binding assay at 10 μM
Method: as §1

Beta2 = Beta2 (Homo sapiens (Human), UniProt P07550); test: PDSP primary binding assay; conditions: primary binding assay at 10 μM
Method: as §1

Calcium channel = test: PDSP primary binding assay; conditions: primary binding assay at 10 μM
Method: as §1

D1 = D1 (Homo sapiens (Human), UniProt P21728); test: PDSP primary binding assay; conditions: primary binding assay at 10 μM
Method: as §1

D2 = D2 (Homo sapiens (Human), UniProt P14416); test: PDSP primary binding assay; conditions: primary binding assay at 10 μM
Method: as §1

D3 = D3 (Homo sapiens (Human), UniProt P35462); test: PDSP primary binding assay; conditions: primary binding assay at 10 μM
Method: as §1

D4 = D4 (Homo sapiens (Human), UniProt P21917); test: PDSP primary binding assay; conditions: primary binding assay at 10 μM
Method: as §1

DAT = DAT (Homo sapiens (Human), UniProt Q01959); test: PDSP primary binding assay; conditions: primary binding assay at 10 μM
Method: as §1

DOR = DOR (Homo sapiens (Human), UniProt P41143); test: PDSP primary binding assay; conditions: primary binding assay at 10 μM
Method: as §1

GABAA = test: PDSP primary binding assay; conditions: primary binding assay at 10 μM
Method: as §1

H1 = H1 (Homo sapiens (Human), UniProt P35367); test: PDSP primary binding assay; conditions: primary binding assay at 10 μM
Method: as §1

H3 = H3 (Homo sapiens (Human), UniProt Q9Y5N1); test: PDSP primary binding assay; conditions: primary binding assay at 10 μM
Method: as §1

H4 = H4 (Homo sapiens (Human), UniProt Q9H3N8); test: PDSP primary binding assay; conditions: primary binding assay at 10 μM
Method: as §1

KOR = KOR (Homo sapiens (Human), UniProt P41145); test: PDSP primary binding assay; conditions: primary binding assay at 10 μM
Method: as §1

M2 = M2 (Homo sapiens (Human), UniProt P08172); test: PDSP primary binding assay; conditions: primary binding assay at 10 μM
Method: as §1

MOR = MOR (Homo sapiens (Human), UniProt P35372); test: PDSP primary binding assay; conditions: primary binding assay at 10 μM
Method: as §1

NET = NET (Homo sapiens (Human), UniProt P23975); test: PDSP primary binding assay; conditions: primary binding assay at 10 μM
Method: as §1

NMDA = test: PDSP primary binding assay; conditions: primary binding assay at 10 μM
Method: as §1

NOP = NOP (Homo sapiens (Human), UniProt P41146); test: PDSP primary binding assay; conditions: primary binding assay at 10 μM
Method: as §1

Sigma 2 = Sigma 2 (Homo sapiens (Human), UniProt Q5BJF2); test: PDSP primary binding assay; conditions: primary binding assay at 10 μM
Method: as §1

5-HT1A = 5-HT1A (Homo sapiens (Human), UniProt P08908); test: PDSP primary binding assay and secondary assay; conditions: for % (10 μM): primary binding assay at 10 μM; for Ki: secondary or functional assay
Method: as §1

Alpha2A = Alpha2A (Homo sapiens (Human), UniProt P08913); test: PDSP primary binding assay and secondary assay; conditions: for % (10 μM): primary binding assay at 10 μM
Method: as §1

HERG = HERG (Homo sapiens (Human), UniProt Q12809); test: PDSP primary binding assay and secondary assay; conditions: for % (10 μM): primary binding assay at 10 μM
Method: as §1

M1 = M1 (Homo sapiens (Human), UniProt P11229); test: PDSP primary binding assay and secondary assay; conditions: for % (10 μM): primary binding assay at 10 μM
Method: as §1

M3 = M3 (Homo sapiens (Human), UniProt P20309); test: PDSP primary binding assay and secondary assay; conditions: for % (10 μM): primary binding assay at 10 μM; for Ki: secondary or functional assay
Method: as §1

M4 = M4 (Homo sapiens (Human), UniProt P08173); test: PDSP primary binding assay and secondary assay; conditions: for % (10 μM): primary binding assay at 10 μM
Method: as §1

M5 = M5 (Homo sapiens (Human), UniProt P08912); test: PDSP primary binding assay and secondary assay; conditions: for % (10 μM): primary binding assay at 10 μM; for Ki: secondary or functional assay
Method: as §1

mGluR5 = mGluR5 (Homo sapiens (Human), UniProt P41594); test: PDSP primary binding assay and secondary assay; conditions: for % (10 μM): primary binding assay at 10 μM; for Ki: secondary or functional assay
Method: as §1

mGluR1 = mGluR1 (Homo sapiens (Human), UniProt Q13255); test: PDSP functional assay; type: biochemical; conditions: only a functional assay was performed
Method: as §1

[1] = n = 4 cells, four concentrations of each compound, IonWorks Barracuda, read-out: IC50 (μM) against CLC-2

M5, sequence (P08912 whole entry): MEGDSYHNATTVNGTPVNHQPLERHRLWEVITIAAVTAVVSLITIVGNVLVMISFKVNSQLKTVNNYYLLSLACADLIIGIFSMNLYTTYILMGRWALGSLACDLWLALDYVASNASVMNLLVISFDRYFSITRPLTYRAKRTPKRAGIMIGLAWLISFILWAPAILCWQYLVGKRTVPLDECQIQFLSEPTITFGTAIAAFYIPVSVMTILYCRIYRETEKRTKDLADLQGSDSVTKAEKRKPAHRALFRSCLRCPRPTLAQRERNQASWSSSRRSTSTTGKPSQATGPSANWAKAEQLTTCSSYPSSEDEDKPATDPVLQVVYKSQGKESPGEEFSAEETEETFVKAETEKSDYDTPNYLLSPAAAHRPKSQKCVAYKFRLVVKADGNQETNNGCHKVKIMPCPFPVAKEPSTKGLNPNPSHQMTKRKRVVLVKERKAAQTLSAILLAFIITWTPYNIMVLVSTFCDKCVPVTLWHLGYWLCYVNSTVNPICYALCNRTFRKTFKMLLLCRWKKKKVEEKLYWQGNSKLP
CLC-2, sequence (P51788 whole entry): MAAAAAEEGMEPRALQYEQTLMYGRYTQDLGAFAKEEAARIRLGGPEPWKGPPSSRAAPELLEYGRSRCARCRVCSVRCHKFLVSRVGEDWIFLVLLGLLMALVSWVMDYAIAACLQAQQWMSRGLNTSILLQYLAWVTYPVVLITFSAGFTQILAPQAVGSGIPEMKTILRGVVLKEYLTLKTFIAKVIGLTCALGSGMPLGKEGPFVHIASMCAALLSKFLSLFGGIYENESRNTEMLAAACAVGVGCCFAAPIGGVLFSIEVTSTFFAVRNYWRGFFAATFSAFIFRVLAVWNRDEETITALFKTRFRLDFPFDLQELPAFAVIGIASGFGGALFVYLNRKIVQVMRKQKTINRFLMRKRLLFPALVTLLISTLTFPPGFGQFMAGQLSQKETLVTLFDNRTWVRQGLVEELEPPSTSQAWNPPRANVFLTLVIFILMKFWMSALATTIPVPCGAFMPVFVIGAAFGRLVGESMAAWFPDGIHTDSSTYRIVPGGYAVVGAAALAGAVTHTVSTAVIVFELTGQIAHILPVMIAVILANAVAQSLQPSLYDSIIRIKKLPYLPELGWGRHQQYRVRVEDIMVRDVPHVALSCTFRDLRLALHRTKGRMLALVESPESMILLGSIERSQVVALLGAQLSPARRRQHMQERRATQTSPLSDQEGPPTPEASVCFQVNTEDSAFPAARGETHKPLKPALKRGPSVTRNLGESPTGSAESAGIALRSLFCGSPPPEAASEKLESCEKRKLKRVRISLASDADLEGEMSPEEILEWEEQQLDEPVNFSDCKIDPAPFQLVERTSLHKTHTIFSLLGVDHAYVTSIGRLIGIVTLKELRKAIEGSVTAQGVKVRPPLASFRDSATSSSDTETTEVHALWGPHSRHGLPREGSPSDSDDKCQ
M4, sequence (P08173 whole entry): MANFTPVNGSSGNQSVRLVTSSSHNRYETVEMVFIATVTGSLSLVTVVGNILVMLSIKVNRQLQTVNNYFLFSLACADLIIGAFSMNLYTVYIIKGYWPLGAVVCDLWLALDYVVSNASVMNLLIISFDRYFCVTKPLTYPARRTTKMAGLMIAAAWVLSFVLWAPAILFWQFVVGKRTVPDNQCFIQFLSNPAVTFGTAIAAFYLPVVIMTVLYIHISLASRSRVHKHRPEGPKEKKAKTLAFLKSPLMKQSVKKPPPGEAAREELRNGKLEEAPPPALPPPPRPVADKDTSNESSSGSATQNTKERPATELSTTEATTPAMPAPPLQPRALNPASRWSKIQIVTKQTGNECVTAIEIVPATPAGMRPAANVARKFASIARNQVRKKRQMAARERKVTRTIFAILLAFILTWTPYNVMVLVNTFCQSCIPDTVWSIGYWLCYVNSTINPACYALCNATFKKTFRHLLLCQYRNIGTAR
M3, sequence (P20309 whole entry): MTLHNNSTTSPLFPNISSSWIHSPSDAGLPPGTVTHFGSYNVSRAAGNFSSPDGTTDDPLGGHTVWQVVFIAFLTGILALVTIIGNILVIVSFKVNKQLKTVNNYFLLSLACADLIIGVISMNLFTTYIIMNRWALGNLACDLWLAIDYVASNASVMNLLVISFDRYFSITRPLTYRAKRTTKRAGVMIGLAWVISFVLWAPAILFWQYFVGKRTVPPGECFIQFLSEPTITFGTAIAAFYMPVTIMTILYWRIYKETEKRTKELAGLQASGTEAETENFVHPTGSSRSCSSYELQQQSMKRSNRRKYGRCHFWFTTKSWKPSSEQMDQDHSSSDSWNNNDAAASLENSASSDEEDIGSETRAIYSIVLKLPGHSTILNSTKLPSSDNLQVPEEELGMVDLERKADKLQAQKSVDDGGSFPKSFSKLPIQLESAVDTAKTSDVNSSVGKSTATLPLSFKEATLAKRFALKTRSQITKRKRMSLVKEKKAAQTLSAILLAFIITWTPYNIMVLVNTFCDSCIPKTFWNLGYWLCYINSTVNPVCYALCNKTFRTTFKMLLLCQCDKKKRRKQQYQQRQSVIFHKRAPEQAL
HERG, sequence (Q12809 whole entry): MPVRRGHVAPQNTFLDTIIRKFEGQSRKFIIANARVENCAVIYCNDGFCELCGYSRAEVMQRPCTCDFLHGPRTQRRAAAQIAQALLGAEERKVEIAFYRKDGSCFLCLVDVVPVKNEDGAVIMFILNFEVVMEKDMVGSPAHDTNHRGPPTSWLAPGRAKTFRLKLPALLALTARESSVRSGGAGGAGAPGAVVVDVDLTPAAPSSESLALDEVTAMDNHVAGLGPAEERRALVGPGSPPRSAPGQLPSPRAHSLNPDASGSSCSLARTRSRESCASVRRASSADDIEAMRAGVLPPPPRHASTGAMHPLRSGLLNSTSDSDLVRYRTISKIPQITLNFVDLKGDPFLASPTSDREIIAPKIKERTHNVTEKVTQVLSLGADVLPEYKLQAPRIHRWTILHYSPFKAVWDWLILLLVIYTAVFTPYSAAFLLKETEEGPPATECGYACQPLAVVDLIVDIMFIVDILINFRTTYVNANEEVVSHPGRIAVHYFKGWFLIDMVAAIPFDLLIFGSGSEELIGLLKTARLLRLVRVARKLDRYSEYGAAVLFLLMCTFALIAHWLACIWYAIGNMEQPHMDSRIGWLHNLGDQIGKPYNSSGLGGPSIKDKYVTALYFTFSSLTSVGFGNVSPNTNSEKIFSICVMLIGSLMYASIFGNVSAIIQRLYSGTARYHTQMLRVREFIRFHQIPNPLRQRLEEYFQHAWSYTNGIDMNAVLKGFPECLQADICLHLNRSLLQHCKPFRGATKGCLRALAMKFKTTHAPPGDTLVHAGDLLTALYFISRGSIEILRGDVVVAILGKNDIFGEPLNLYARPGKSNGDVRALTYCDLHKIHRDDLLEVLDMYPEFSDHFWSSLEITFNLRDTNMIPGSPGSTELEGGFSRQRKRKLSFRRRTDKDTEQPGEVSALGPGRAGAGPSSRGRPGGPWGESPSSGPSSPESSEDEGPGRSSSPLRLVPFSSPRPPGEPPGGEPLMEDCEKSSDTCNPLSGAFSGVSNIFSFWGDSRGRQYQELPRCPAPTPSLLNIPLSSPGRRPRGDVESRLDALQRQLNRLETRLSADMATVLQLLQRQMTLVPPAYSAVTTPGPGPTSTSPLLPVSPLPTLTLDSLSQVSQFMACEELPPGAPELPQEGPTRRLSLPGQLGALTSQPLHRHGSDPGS
M1, sequence (P11229 whole entry): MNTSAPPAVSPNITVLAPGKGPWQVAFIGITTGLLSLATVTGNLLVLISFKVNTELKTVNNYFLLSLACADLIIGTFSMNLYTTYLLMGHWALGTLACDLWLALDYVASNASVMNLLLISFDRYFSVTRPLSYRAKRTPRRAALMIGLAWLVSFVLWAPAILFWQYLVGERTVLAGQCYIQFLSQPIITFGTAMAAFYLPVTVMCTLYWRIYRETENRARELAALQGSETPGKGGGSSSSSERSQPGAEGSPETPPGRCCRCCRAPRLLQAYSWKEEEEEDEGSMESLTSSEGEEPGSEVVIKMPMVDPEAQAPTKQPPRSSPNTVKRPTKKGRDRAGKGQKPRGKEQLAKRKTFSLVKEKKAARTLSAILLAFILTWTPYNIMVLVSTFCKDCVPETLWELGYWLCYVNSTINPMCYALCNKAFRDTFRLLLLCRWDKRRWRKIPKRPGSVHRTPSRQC
Alpha2A, sequence (P08913 whole entry): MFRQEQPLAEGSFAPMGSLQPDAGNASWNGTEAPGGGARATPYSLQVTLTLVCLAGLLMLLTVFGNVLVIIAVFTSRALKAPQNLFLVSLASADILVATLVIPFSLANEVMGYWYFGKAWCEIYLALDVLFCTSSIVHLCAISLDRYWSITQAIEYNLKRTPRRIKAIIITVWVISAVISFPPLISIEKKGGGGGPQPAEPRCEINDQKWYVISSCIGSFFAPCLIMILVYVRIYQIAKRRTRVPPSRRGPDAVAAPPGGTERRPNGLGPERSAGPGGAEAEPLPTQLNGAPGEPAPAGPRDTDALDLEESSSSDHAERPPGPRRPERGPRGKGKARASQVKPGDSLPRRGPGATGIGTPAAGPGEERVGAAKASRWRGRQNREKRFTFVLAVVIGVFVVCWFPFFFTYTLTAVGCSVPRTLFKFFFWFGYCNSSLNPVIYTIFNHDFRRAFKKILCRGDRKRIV
5-HT1A, sequence (P08908 whole entry, species assumed): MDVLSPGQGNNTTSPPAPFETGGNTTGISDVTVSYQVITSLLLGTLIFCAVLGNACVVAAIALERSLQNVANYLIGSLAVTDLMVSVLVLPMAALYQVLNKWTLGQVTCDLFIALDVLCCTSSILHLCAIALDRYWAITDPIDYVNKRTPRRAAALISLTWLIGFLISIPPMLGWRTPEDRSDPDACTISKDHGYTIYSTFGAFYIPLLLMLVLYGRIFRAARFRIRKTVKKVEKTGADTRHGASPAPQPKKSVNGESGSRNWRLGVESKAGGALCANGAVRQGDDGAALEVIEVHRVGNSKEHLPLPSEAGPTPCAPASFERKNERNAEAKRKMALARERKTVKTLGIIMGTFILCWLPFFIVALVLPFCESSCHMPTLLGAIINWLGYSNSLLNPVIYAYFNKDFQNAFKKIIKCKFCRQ

SMILES: O=C(O)c1ccccc1Nc1c(Cl)ccc(OCc2ccccc2)c1Cl [AK3-99B]
IC50 (CLC-2; Table 2, read-out: IC50 (CLC-2)): 1.7 ± 0.2 µM
IC50 (CLC-2; [1]): 0.62 µM
IC50 (CLC-2; text and FIG. 3, Table 1 series, read-out: IC50 against CLC-2): ~0.6 µM and 0.6 µM
% (10 μM) (5-HT1B): −0.25%
% (10 μM) (5-HT1D): 6.77%
% (10 μM) (5-HT1E): 11.82%
% (10 μM) (5-HT2C): −11.17%
% (10 μM) (5-HT3): −7.63%
% (10 μM) (5-HT5A): −5.77%
% (10 μM) (5-HT6): −10.67%
% (10 μM) (Alpha2C): 17.28%
% (10 μM) (Beta1): −13.11%
% (10 μM) (Beta2): −8.08%
% (10 μM) (Calcium channel): 12.22%
% (10 μM) (D1): 27.05%
% (10 μM) (D2): −6.96%
% (10 μM) (D3): 18.42%
% (10 μM) (D4): −0.19%
% (10 μM) (DAT): −17.73%
% (10 μM) (DOR): 16.22%
% (10 μM) (GABAA): −17.65%
% (10 μM) (H1): −4.62%
% (10 μM) (H3): −5.97%
% (10 μM) (H4): 8.29%
% (10 μM) (KOR): 29.90%
% (10 μM) (M2): 14.57%
% (10 μM) (MOR): 9.03%
% (10 μM) (NET): 33.59%
% (10 μM) (NMDA): 39.29%
% (10 μM) (NOP): 24.65%
% (10 μM) (Sigma 2): −9.10%
% (10 μM) (5-HT1A): 50.00%
Ki (5-HT1A): > 10 µM
% (10 μM) (Alpha2A): 65.08%
Ki (Alpha2A; secondary or functional assay): 3 µM
% (10 μM) (HERG): −15.95%
% (10 μM) (M1): 58.54%
Ki (M1; secondary or functional assay): > 10 µM
% (10 μM) (M3): 65.66%
Ki (M3): > 10 µM
% (10 μM) (M4): −3.01%
% (10 μM) (M5): 56.99%
Ki (M5): > 10 µM
% (10 μM) (mGluR5): 47.44%
Ki (mGluR5): > 10 µM
Ki (mGluR1): > 10 µM

% inhibition at the concentration listed (in parenthesis) (CLC-2; CLC-2, at the concentration listed in the IC50 cell, negative = increase in peak current): (90%)
times greater potency towards CLC-2 compared to CLC-1 (CLC-2): approximately 10,000 times
times greater potency towards CLC-2 compared to CLC-1 (CLC-2; listed as FA44): 10,000 times
selectivity CLC-2 over CLC-1 (CLC-2; FIG. 8 panel A): selective for CLC-2 over CLC-1
IC50 (CLC-2; Table 2 / FIG. 8, 16 concentrations, n=4-8, −120 mV, read-out: IC50 (CLC-2)): 0.017 ± 0.002 µM
IC50 (CLC-2; [1]): < 0.12 µM
% (10 μM) (5-HT1B): 49.89%
% (10 μM) (5-HT1D): 44.06%
% (10 μM) (5-HT1E): 10.43%
% (10 μM) (5-HT2C): −13.39%
% (10 μM) (5-HT3): 28.75%
% (10 μM) (5-HT5A): 28.19%
% (10 μM) (5-HT6): 18.68%
% (10 μM) (Alpha2C): 3.41%
% (10 μM) (Beta1): 22.04%
% (10 μM) (Beta2): 4.77%
% (10 μM) (Calcium channel): 23.69%
% (10 μM) (D1): −9.96%
% (10 μM) (D2): 7.69%
% (10 μM) (D3): −4.66%
% (10 μM) (D4): −0.65%
% (10 μM) (DAT): 9.23%
% (10 μM) (DOR): 16.59%
% (10 μM) (GABAA): −4.29%
% (10 μM) (H1): 15.48%
% (10 μM) (H3): −0.92%
% (10 μM) (H4): 2.23%
% (10 μM) (KOR): 4.11%
% (10 μM) (M2): −8.25%
% (10 μM) (MOR): −0.18%
% (10 μM) (NET): 17.36%
% (10 μM) (NMDA): 24.18%
% (10 μM) (NOP): 21.14%
% (10 μM) (Sigma 2): −8.14%
% (10 μM) (5-HT1A): 53.99%
Ki (5-HT1A): > 10 µM
% (10 μM) (Alpha2A): −2.55%
% (10 μM) (M1): 11.29%
% (10 μM) (M3): 54.64%
Ki (M3): > 3 µM
% (10 μM) (M4): 56.16%
Ki (M4; secondary or functional assay): > 5 µM
% (10 μM) (M5): 13.55%
Ki (M5): > 10 µM
% (10 μM) (mGluR5): 57.39%
Ki (mGluR5): > 10 µM
Ki (mGluR1): > 10 µM
SMILES: O=C(O)c1cccnc1Nc1c(Cl)ccc(OCc2ccccc2)c1Cl [AK3-238]
% (10 μM) (HERG): −43.87%
Ki (HERG; secondary or functional assay): > 10 µM
